Source: patent US20080107619A1, “Carbohydrate based cellulase inhibitors as feeding stimulants in termites” (University of Florida Research Foundation, Inc., priority 2006, published 2008)

Target: exoglucanase
Test: In vitro exoglucanase inhibition, pNPC assay (I50 determination)
Format: biochemical, R. flavipes
Conditions: foregut/salivary gland/midgut (endogenous) and hindgut (symbiotic) fractions, FIG. 4
Description: Gut dissections were carried out for cellulase distribution and inhibition studies. For dissections, termites were immobilized on ice, decapitated, and the entire digestive tract removed through a small incision made in the abdominal exoskeleton. For cellulase distribution studies, dissected guts were divided into three regions: (i) salivary gland+foregut, (ii) midgut and (iii) hindgut. For inhibition studies, guts were divided into two major components that included: (i) foregut, salivary gland and midgut, and (ii) hindgut. […]
Cellulase activity assays were adapted from Han et al. in “Characterization of a bifunctional cellulase and its structural gene,” J. Biol. Chem. 270 (1995) 26012-26019, with optimization for a 96-well microplate format. […] Color was allowed to develop on ice for 15 min before measuring absorbance at 540 nm relative to a glucose standard curve.
The hydrolysis product of both the pNPC and pNPG substrates is p-nitrophenol, which is yellow in color and permits for direct quantification of activity in a kinetic assay. pNPC and pNPG assays were initially incubated at 32° C. for 20 min before measuring the release of the product, p-nitrophenol, at 420 nm. The absorbance of reactions was read every 2 min for 1 hr and activity was determined based on rate of absorbance change. […]

Row | Compound | I50 against exoglucanase activity
1 | OC[C@@H]1[C@@H](O[C@@H]2O[C@H](CO)[C@@H](O)[C@H](O)[C@H]2O)[C@H](O)[C@@H](O)c2nccn21 [CBI, cellobioimidazole] | I50s in the nM-μM range
2 | fluoromethyl glucose [FMG] | virtually no inhibitory properties
